The values that follow come from patent US20250049948A1, “NOVEL IONIZABLE LIPIDS AND LIPID NANOPARTICLES AND METHODS OF USING THE SAME” (Sail Biomedicines, Inc., priority 2021, published 2025).

Series [1] in a line: mRNA encapsulation efficiency, Quant-iT RiboGreen RNA Assay. Format: physicochemical. As for the experimental part: (§1) For each LNP composition, the lipid mix and mRNA solution were mixed at a 1:3 ratio by volume, respectively, on a NanoAssemblr Ignite (Precision Nanosystems) at a total flow rate of 9 mL/min. The resulting compositions were then loaded into Slide-A-Lyzer G2 dialysis cassettes (10 k MWCO) and dialyzed in 200 times sample volume of 1×PBS for 2 hours at room temperature with gentle stirring. The PBS was refreshed, and the compositions were further dialyzed for at least 14 hours at 4° C. with gentle stirring. The dialyzed compositions were then collected and concentrated by centrifugation at 3000×g using Amicon Ultra centrifugation filters (100 k MWCO). The concentrated particles were characterized for size, polydispersity, and particle concentration using Zetasizer Ultra (Malvern Panalytical) and for mRNA encapsulation efficiency using Quant-iT RiboGreen RNA Assay Kit (ThermoFisher Scientific).

Series [2] in a line: Apparent LNP pKa, TNS assay. Format: physicochemical. The following applies: LNP with FLUC/EPO 1:1 mRNA. On the procedure: For pKa measurement, a […] assay was conducted according to those described in Sabnis et al., Molecular Therapy, 26(6):1509-19), which is incorporated herein by reference in its entirety. Briefly, 20 buffers (10 mM sodium phosphate, 10 mM sodium borate, 10 mM sodium citrate, and 150 mM sodium chloride, in distilled Water) of unique pH values ranging from 3.0-12.0 were prepared using 1M sodium hydroxide and 1M hydrochloric acid. 3.25 μL of a LNP composition (0.04 mg/mL mRNA, in PBS) was incubated with 2 μL of TNS reagent (0.3 mM, in DMSO) and 90 μL of buffer for each pH value (described above) in a 96-well black-walled plate. Each pH condition was performed in triplicate wells. The TNS fluorescence was measured using a Biotek Cytation Plate reader at excitation/emission wavelengths of 321/445 nm. The fluorescence values were then plotted and fit using a 4-parameter sigmoid curve. From the fit, the pH value yielding the half-maximal fluorescence was calculated and reported as the apparent LNP pKa value.

The nature of series [3]: LNP size and polydispersity, Zetasizer Ultra. Format: physicochemical. On the procedure: as §1
Series [4] concerns Balb/c mice. Briefly: In-vivo bioluminescent imaging of LNP compositions (Example 6). The following applies: for Bioluminescence (IV) Liver / Bioluminescence (IV) Lung / Bioluminescence (IV) Spleen / Bioluminescence (IV) Whole Body: 4-6 hours post-dose; for Spleen: Liver Ratio: intravenous.
For series [5], the system named is Balb/c mice. Description: EPO levels in plasma, EPO MSD kit (Example 6). It is filed as in vivo. The following applies: mRNA dose 5 μg FLUC + 5 μg EPO, intravenous.
Setting [6] is: mRNA dose 5 μg FLUC (CRE/FLUC 1:1 LNP).

For `CCCCCCCCC(CCCCCC)C(=O)OCCCCCCN(CCCCCCOC(=O)C(CCCCCC)CCCCCCCC)C(=O)CCN1CCCC1` (centres unmarked) [Compound 2215, ((3-(pyrrolidin-1-yl)propanoyl)azanediyl)bis (hexane-6,1-diyl) bis(2-hexyldecanoate)], in series [1] (LNP with FLUC/EPO 1:1 mRNA), the “% EE” value is 96.3%. For the same compound, in series [2], the “pKa (TNS)” value was found to be 7.12. Further, in series [3] (LNP with FLUC/EPO 1:1 mRNA), the PDI is 0.1 and the “Size (nm)” value is reported as 80.18 nm. In series [4] (mRNA dose 5 μg FLUC + 5 μg EPO), the “Bioluminescence (IV) Liver” value was determined as 2.2E + 06, the “Bioluminescence (IV) Lung” value amounted to 6.5E + 04, the “Bioluminescence (IV) Spleen” value stood at 6.6E + 05 and the “Bioluminescence (IV) Whole Body” value is recorded as 3.2E + 07. Besides, the “Spleen: Liver Ratio” value in series [4] (mRNA dose 5 μg FLUC + 5 μg EPO) is listed as 0.449.

For the compound `CCCCCC(CCCCC)CCCOC(=O)CCCCCCCN(CCCCCCCC(=O)OCCCC(CCCCC)CCCCC)C(=O)CCN1CCC(O)C1` (centres unmarked) [Compound 2235, bis(4-pentylnonyl) 8,8′-((3-(3-hydroxypyrrolidin-1-yl)propanoyl)azanediyl)dioctanoate], the hEPO in series [5] is 2.2E + 02. In series [1] (LNP with FLUC/EPO 1:1 mRNA), the “% EE” value came to 97.5%. For the same compound, the “pKa (TNS)” value in series [2] was 7.76. Also, in series [3] (LNP with FLUC/EPO 1:1 mRNA), the PDI is 0.067 and the “Size (nm)” value is 84.84 nm. Moreover, in series [4] (mRNA dose 5 μg FLUC + 5 μg EPO), the “Bioluminescence (IV) Liver” value amounted to 2.0E + 03, the “Bioluminescence (IV) Lung” value is reported as 7.6E + 03, the “Bioluminescence (IV) Spleen” value is on record as 2.9E + 04 and the “Bioluminescence (IV) Whole Body” value worked out at 9.8E + 03. In addition, the “Spleen: Liver Ratio” value in series [4] (mRNA dose 5 μg FLUC + 5 μg EPO) is 14.407.

In the case of `CCCCCCCCC(CCCCCC)C(=O)OCCCCCCN(CCCCCCOC(=O)C(CCCCCC)CCCCCCCC)CCOCCOCCN(C)C` (centres unmarked) [Compound 2216, 11-(6-((2-hexyldecanoyl)oxy)hexyl)-2-methyl-5,8-dioxa-2,11-diazaheptadecan-17-yl 2-hexyldecanoate], in series [1] (LNP with FLUC/EPO 1:1 mRNA), the “% EE” value is recorded as 96.8%. Moreover, the “pKa (TNS)” value in series [2] stood at 7. In series [3] (LNP with FLUC/EPO 1:1 mRNA), the PDI came to 0.11 and the “Size (nm)” value is on record as 88.81 nm. Further, in series [4] (mRNA dose 5 μg FLUC + 5 μg EPO), the “Bioluminescence (IV) Liver” value turned out to be 3.2E + 05, the “Bioluminescence (IV) Lung” value is reported as 9.0E + 03, the “Bioluminescence (IV) Spleen” value is listed as 3.8E + 05 and the “Bioluminescence (IV) Whole Body” value was found to be 1.5E + 06. Moreover, the “Spleen: Liver Ratio” value in series [4] (mRNA dose 5 μg FLUC + 5 μg EPO) came to 1.539.

As to `CCCCCCCCCCCOC(=O)CCCCCN(CCCCCCCC(=O)OC(CCCCCCCC)CCCCCCCC)C(C)CO` (centres unmarked) [Compound 2249, heptadecan-9-yl 8-((1-hydroxypropan-2-yl)(6-oxo-6-(undecyloxy)hexyl)amino)octanoate], the hEPO in series [5] amounted to 7.6E + 05. The “% EE” value in series [1] (LNP with FLUC/EPO 1:1 mRNA) was determined as 93.3%. Also, in series [2], the “pKa (TNS)” value came out at 5.84. For the same compound, in series [3] (LNP with FLUC/EPO 1:1 mRNA), the PDI turned out to be 0.08 and the “Size (nm)” value was 86.05 nm. Moreover, in series [4] (mRNA dose 5 μg FLUC + 5 μg EPO), the “Bioluminescence (IV) Liver” value stood at 1.2E + 07, the “Bioluminescence (IV) Lung” value came to 7.9E + 03, the “Bioluminescence (IV) Spleen” value is 3.2E + 06 and the “Bioluminescence (IV) Whole Body” value came out at 7.2E + 07. For the same compound, the “Spleen: Liver Ratio” value in series [4] (mRNA dose 5 μg FLUC + 5 μg EPO) is on record as 0.258.

Turning to `CCCCCCC(CCCCCC)CCCOC(=O)CCCCCCCN(CCCCCCCC(=O)OCCCC(CCCCCC)CCCCCC)C(=O)CCCN(C)C` [Compound 2133, bis(4-hexyldecyl) 8,8′-((4-(dimethylamino)butanoyl)azanediyl) dioctanoate], the hEPO in series [5] is given as 2.5E + 02. The “% EE” value in series [1] (LNP with FLUC/EPO 1:1 mRNA) was determined as 98.7%. In addition, in series [2], the “pKa (TNS)” value amounted to 7.96. For the same compound, in series [3] (LNP with FLUC/EPO 1:1 mRNA), the PDI is given as 0.08 and the “Size (nm)” value is 87.7 nm. For the same compound, in series [4] (mRNA dose 5 μg FLUC + 5 μg EPO), the “Bioluminescence (IV) Liver” value was 4.4E + 04, the “Bioluminescence (IV) Lung” value was determined as 5.8E + 04, the “Bioluminescence (IV) Spleen” value stood at 3.9E + 04 and the “Bioluminescence (IV) Whole Body” value is 3.8E + 04. Moreover, in series [4] (mRNA dose 5 μg FLUC + 5 μg EPO), the “Spleen: Liver Ratio” value is 1.574.

In the case of `CCCCCC(CCCCC)CCCOC(=O)CCCCCCCN(CCCCCCCC(=O)OCCCC(CCCCC)CCCCC)C(=O)CCN1CCCC1` [Compound 2141, bis(4-pentylnonyl) 8,8′-((3-(pyrrolidin-1-yl)propanoyl)azanediyl)dioctanoate], in series [5], the hEPO amounted to 2.1E + 03. Moreover, the “% EE” value in series [1] (LNP with CRE/FLUC 1:1 mRNA) is on record as 95.6%. The “% EE” value in series [1] (LNP with EGFP mRNA) is on record as 95.4%. The “% EE” value in series [1] (LNP with FLUC/EPO 1:1 mRNA) is reported as 95.9%. Further, the “pKa (TNS)” value in series [2] amounted to 7.57. Also, in series [3] (LNP with CRE/FLUC 1:1 mRNA), the PDI is 0.11 and the “Size (nm)” value is on record as 79.4 nm. In series [3] (LNP with EGFP mRNA), the PDI is listed as 0.21 and the “Size (nm)” value came to 109.3 nm. In series [3] (LNP with FLUC/EPO 1:1 mRNA), the PDI is given as 0.06 and the “Size (nm)” value was 73.83 nm. Moreover, in series [4] (setting [6]), the “Bioluminescence (IV) Liver” value was determined as 5.6E + 05, the “Bioluminescence (IV) Lung” value came out at 7.1E + 03, the “Bioluminescence (IV) Spleen” value was found to be 2.3E + 05 and the “Bioluminescence (IV) Whole Body” value was 5.5E + 06. In addition, the “Spleen: Liver Ratio” value in series [4] (setting [6]) was found to be 0.527. For the same compound, in series [4] (mRNA dose 5 μg FLUC + 5 μg EPO), the “Bioluminescence (IV) Liver” value is given as 3.1E + 04, the “Bioluminescence (IV) Lung” value is on record as 6.8E + 04, the “Bioluminescence (IV) Spleen” value was 1.3E + 05 and the “Bioluminescence (IV) Whole Body” value is 1.9E + 05. In addition, in series [4] (mRNA dose 5 μg FLUC + 5 μg EPO), the “Spleen: Liver Ratio” value is 6.131.

With `CCCCCCCCC(CCCCCC)C(=O)OCCCCCCN(CCCCCCOC(=O)C(CCCCCC)CCCCCCCC)CCC(O)CN(C)C` (centres unmarked) [Compound 2225, ((4-(dimethylamino)-3-hydroxybutyl)azanediyl) bis(hexane-6,1-diyl) bis(2-hexyldecanoate)], the “% EE” value in series [1] (LNP with FLUC/EPO 1:1 mRNA) amounted to 97.9%. Further, the “pKa (TNS)” value in series [2] amounted to 7.25. In series [3] (LNP with FLUC/EPO 1:1 mRNA), the PDI turned out to be 0.07 and the “Size (nm)” value is 81.88 nm. Further, in series [4] (mRNA dose 5 μg FLUC + 5 μg EPO), the “Bioluminescence (IV) Liver” value is listed as 1.8E + 05, the “Bioluminescence (IV) Lung” value is 1.0E + 04, the “Bioluminescence (IV) Spleen” value turned out to be 2.2E + 05 and the “Bioluminescence (IV) Whole Body” value is 3.5E + 05. Further, in series [4] (mRNA dose 5 μg FLUC + 5 μg EPO), the “Spleen: Liver Ratio” value is on record as 1.261.

With `CCCCCCCCCCCOC(=O)CCCCCN(CCCCCCCC(=O)OC(CCCCCCCC)CCCCCCCC)C(C)(C)CO` [Compound 2250, heptadecan-9-yl 8-((1-hydroxy-2-methylpropan-2-yl)(6-oxo-6-(undecyloxy)hexyl)amino)octanoate], the hEPO in series [5] amounted to 9.5E + 05. Also, in series [1] (LNP with FLUC/EPO 1:1 mRNA), the “% EE” value is recorded as 92.2%. Besides, the “pKa (TNS)” value in series [2] was found to be 6.31. In addition, in series [3] (LNP with FLUC/EPO 1:1 mRNA), the PDI was found to be 0.068 and the “Size (nm)” value turned out to be 73.75 nm. Also, in series [4] (mRNA dose 5 μg FLUC + 5 μg EPO), the “Bioluminescence (IV) Liver” value stood at 2.7E + 07, the “Bioluminescence (IV) Lung” value worked out at 7.9E + 03, the “Bioluminescence (IV) Spleen” value was 2.7E + 06 and the “Bioluminescence (IV) Whole Body” value turned out to be 1.5E + 08. Moreover, the “Spleen: Liver Ratio” value in series [4] (mRNA dose 5 μg FLUC + 5 μg EPO) is listed as 0.099.

On to `CCCCCC(CCCCC)CCCOC(=O)CCCCCCCN(CCCCCCCC(=O)OCCCC(CCCCC)CCCCC)C(=O)CN1CCCC1` [Compound 2233, bis(4-pentylnonyl) 8,8′-((2-(pyrrolidin-1-yl)acetyl)azanediyl) dioctanoate], for which the hEPO in series [5] is given as 2.8E + 06. Moreover, the “% EE” value in series [1] (LNP with FLUC/EPO 1:1 mRNA) came to 91.2%. Moreover, the “pKa (TNS)” value in series [2] is 6.83. Moreover, in series [3] (LNP with FLUC/EPO 1:1 mRNA), the PDI came to 0.04 and the “Size (nm)” value is listed as 85.5 nm. In series [4] (mRNA dose 5 μg FLUC + 5 μg EPO), the “Bioluminescence (IV) Liver” value is reported as 6.1E + 07, the “Bioluminescence (IV) Lung” value worked out at 4.1E + 04, the “Bioluminescence (IV) Spleen” value is recorded as 4.7E + 06 and the “Bioluminescence (IV) Whole Body” value worked out at 5.4E + 08. Further, the “Spleen: Liver Ratio” value in series [4] (mRNA dose 5 μg FLUC + 5 μg EPO) is reported as 0.077.
